Experimental data published in US20130085178A1, “COMPOSITION FOR TREATING BONE DISEASE COMPRISING A GLYCEOLLIN AS AN ACTIVE INGREDIENT” (KYUNGPOOK NATIONAL UNIVERSITY INDUSTRY-ACADEMIC COOPERATION …, priority 2010, published 2013).
Entries after “also recorded” stand apart in the source; their conditions may differ. Peptide text beside a SMILES is read from it. * marks the point of attachment. Cbz = O=C(OCc1ccccc1)*

Experiments:
[1] = test system: osteoblasts isolated from mouse calvarial; experiment: Osteoblast differentiation by ALP staining, Alizarin Red staining and calcium contents; assay type: cell-based; conditions: 0, 10 and 20 μM glyceollin
Method: (§1) Osteoblasts isolated from calvarial of 18.5 days old mice and mouse MC3T3E1 cells were cultured in alpha-MEM containing 10% FBS at 37° C. in a humidified atmosphere containing 5% CO2. To induce differentiation of osteoblasts and MC3T3E1 cells, 50 μg/ml of ascorbic acid and 10 mM of beta-glycerophosphate are added to alpha-MEM containing 10% FBS. RAW264.7 (murine monocyte/macrophage) cells were cultured in D-MEM containing 10% FBS, and RANKL is added to alpha-MEM containing 10% FBS to induce differentiation to osteoclasts.
(§2) MC3T3E1 cells were treated with 0, 5, 10, 25 and 50 μM of glyceollin during induction of cellular differentiation. RAW264.7 cells were treated with 0, 5, 10 and 25 μM of glyceollin during induction of cellular differentiation. Osteoblasts isolated from mouse calvarial were treated with 0, 10 and 20 μM of glyceollin during induction of cellular differentiation. Osteoporosis mice induced by high dose vitamin D were daily injected 0, 0.5 and 5 μg/kg of glyceollin for 9 days.
Osteoblasts isolated from mouse calvarial were treated with 0, 10 and 20 μM of glyceollin during induction of cellular differentiation, and differentiation was analyzed by ALP staining (7 days after differentiation) and Alizarin Red staining (21 days after differentiation).
In addition, calcium contents of osteoblasts (21 days after differentiation) were measured and reduction of calcium was observed as glyceollin concentration increased (FIG. 3c).

osteoporosis mouse model = experiment: Osteoporosis mouse model induced by high dose vitamin D (micro CT, Trichrome staining, TRAP staining of calvarial); assay type: in vivo, mice (C57BL/6)
Method: Normal mice (C57BL/6) were subcutaneously injected with high dose vitamin D (60×10^4 IU/kg) to obtain osteoporosis mouse model, and monitored during 10 days after first injection. High dose vitamin D activates osteoclasts to reduce mouse bone mass.
as §2
To elucidate in vivo inhibitory effect of glyceollin on differentiation of osteoclasts which had been confirmed in vitro, osteoporosis mouse model injected with high dose vitamin D one time a day for 3 days. The mice treated with glyceollins one time a day for 9 days were sacrificed at 10 days after first injection and calvarial was observed by micro CT analysis, Trichrome staining and TRAP staining.

MC3T3E1 cells = experiment: Osteoblast proliferation: morphology, cell number and MTT analysis of glyceollin-treated MC3T3E1 cells; assay type: cell-based, mouse; conditions: vs untreated cells
Method: as §1
(§3) To investigate the function of glyceollin on osteoblasts proliferation, morphology and number of glyceollin-treated MC3T3E1 cells were analyzed and MTT analysis was carried out.

Runx2 = Runx2 protein and mRNA level in MC3T3E1 cells during induction of differentiation; assay type: cell-based, mouse
Method: as §1, §2, §3
To investigate whether the decrease of Runx2 protein is due to decrease of Runx2 mRNA, mRNA expression patterns were measured after treatment of glyceollin.
The Runx2 protein level decreased by glyceollin was recovered by MG132 (FIG. 1f).

RAW264.7 cells = experiment: Differentiation of RAW264.7 cells to osteoclasts by TRAP staining; assay type: cell-based, murine; conditions: RANKL-induced, 0, 5, 10 and 25 μM glyceollin, TRAP stained 4 days after
Method: as §1, §2
RAW264.7 cells were treated with 0, 5, 10 and 25 μM of glyceollin during induction of differentiation, and then TRAP stained 4 days after to analyze osteoclasts.

[2] = test system: osteoblasts isolated from mouse calvarial; experiment: Proteins and mRNAs related to osteoblast differentiation (Runx2, osteocalcin, Rankl, Opg) in osteoblasts isolated from mouse calvarial; assay type: cell-based
Method: as §1, §2
Proteins and mRNAs related to osteoblast differentiation were measured in osteoblasts isolated from mouse calvarial which were treated with 0, 10 and 20 μM of glyceollin.
Consequently, Rankl/Opg ratio was decreased by glyceollins in osteoblast differentiation (FIG. 2c).

[3] = calvarial micro CT, 0, 0.5 and 5 μg/kg glyceollin daily for 9 days, sacrificed at 10 days
[4] = calvarial, osteoporosis mouse model by high dose vitamin D
[5] = 10 and 20 μM glyceollin during cellular proliferation
[6] = mouse calvarial osteoblasts, 0, 10 and 20 μM glyceollin
[7] = mouse calvarial osteoblasts, real-time PCR, 0, 10 and 20 μM glyceollin, listed as glyceollins

glyceollin
differentiation of osteoblast by ALP staining ([1]; 7 days after differentiation): inhibited by glyceollin in dose-dependent manner | calcium contents of osteoblasts ([1]; 21 days after differentiation): decreased as the concentration of glyceollin increased; also recorded: reduction | differentiation of osteoblast by Alizarin Red staining ([1]; 21 days after differentiation): inhibited according to the concentration of glyceollin; also recorded: inhibited by glyceollin in dose-dependent manner | osteoporosis of mouse calvarial mediated by high dose vitamin D (BMC, BMD and TMD analysis after CT) (osteoporosis mouse model; administration of glyceollin): recovered | bone mineral contents (BMC) (osteoporosis mouse model; [3]): increased by glyceollin in dose-dependent manner | bone mineral density (BMD) (osteoporosis mouse model; [3]): increased by glyceollin in dose-dependent manner | tissue mineral contents (TMC) (osteoporosis mouse model; [3]): increased by glyceollin in dose-dependent manner | collagen generation (Trichrome staining) (osteoporosis mouse model; [4]): increased | number of osteoclasts (TRAP staining) (osteoporosis mouse model; [4]): decrease | morphology of MC3T3E1 cells (MC3T3E1 cells; 20 μM glyceollin during cellular proliferation): similar; also recorded: no significant difference | MTT assay for MC3T3-E1 cells (MC3T3E1 cells; [5]): similar; also recorded: no significant difference | number of MC3T3E1 cells (MC3T3E1 cells; [5]): similar; also recorded: no significant difference | Runx2 protein level (Runx2; MC3T3E1 cells, 0, 5, 10, 25 and 50 μM glyceollin during induction of differentiation): decreased as the concentration of glyceollin increased | Runx2 mRNA level (Runx2; MC3T3E1 cells, 10 and 20 μM glyceollin during induction of differentiation): not changed; also recorded: not affected | differentiation to osteoclasts (TRAP stained osteoclasts) (RAW264.7 cells): inhibited as the concentration of glyceollin increased; also recorded: reduced by glyceollin in dose-dependent manner | Runx2 mRNA level [2, 6]: not changed; also recorded: not affected | osteocalcin mRNA level (differentiation marker of osteoblasts) [2, 6]: decreased according to the concentration of glyceollin; also recorded: Dose-dependent reduction | Runx2 protein level ([2]; mouse calvarial osteoblasts, 0, 10 and 20 μM glyceollin, D21): decreased by glyceollin in dose-dependent manner | Rankl/Opg ratio ([2]; mouse calvarial osteoblasts, osteoblast differentiation): decreased | Rankl mRNA level ([2]; mouse calvarial osteoblasts, real-time PCR, 0, 10 and 20 μM glyceollin): decreased according to the concentration of glyceollin | Opg mRNA level [2, 7]: not affected or slightly increased | Rankl mRNA level [2, 7]: down-regulated

CC(C)C[C@@H](C=O)NC(=O)[C@H](CC(C)C)NC(=O)[C@H](CC(C)C)NC(=O)OCc1ccccc1 [MG132, reference compound] (Cbz-Leu-Leu-Leu-aldehyde)
Runx2 protein level decreased by glyceollin, after further treatment with proteasome inhibitor (Runx2; MC3T3E1 cells, 20 μM glyceollin plus MG132 vs 20 μM glyceollin only): recovered
